Measured values reported in US20050277639A1, “2-Pyridinyl[7-(substituted-pyridin-4-yl)pyrazolo[1,5-a]pyrimidin-3-yl]methanones” (priority 2004, published 2005).

Target: benzodiazepine receptor (Rattus norvegicus, UniProt P18508+P62813)
Assay: Competition radioligand binding assay with [3H]Ro 15-1788 in washed cerebellar membranes
Conditions: [3H]Ro 15-1788 binding; comparison with parent compound ocinaplon

Structure (SMILES): O=C(c1ccccn1)c1cnn2c(-c3cc(Br)nc(Br)c3)ccnc12 [2,6-dibromo, 2-Pyridinyl[7-(2,6-dibromopyridin-4-yl)pyrazolo[1,5-a]pyrimidin-3-yl]methanone]
- affinity for the benzodiazepine receptor compared with ocinaplon: substantially lower affinity
